In patent publication US20190330529A1, “USE AND COMPOSITION OF BUFFER FORMULATION WITH MULTIPLE PH VALUES AND UREASE ACTIVITY INHIBITOR” (ECO-GEO BIO-TECHNOLOGY COMPANY LIMITED, priority 2018, published 2019):

Key:
[1] = molecular target: T1, urease (U7752, Sigma-Aldrich) (Canavalia ensiformis, UniProt P07374); experiment: Inhibition of the activity of the urease in citric acid salt buffer solution (Berthelot, absorbance 625 nm); format: biochemical
T1 construct: purchased Sigma-Aldrich U7752
Experimental: (§1) 7.1 Control group: Control group: 20 μL of the buffer solution and 25 μL of 50 ppm urease were added and mixed in wells of a 96-well plate. After the mixture reacted at 37° C. for 5 minutes, 40 μL of 20 mM urea solution was added into the mixture. After the mixture reacted at 37° C. for 10 minutes, 55 μL of Berthelot reagent A and 60 μL of Berthelot reagent B were added into each well. The mixture was held in the dark at 37° C. for 30 minutes, and the absorbance was measured at 625 nm wavelength by the ELISA reader. Each sample was measured at least in triplicate.
as §1, with “7.2 Ascorbic acid groups: 10” for “7.1 Control group: Control group: 20”, “buffer solution, 10 μL of ascorbic acid” for “buffer”, “mixture to make the final concentrations of the ascorbic acid as 120 ppm, 240 ppm and 480 ppm, respectively.” for “mixture.”, “triplicate. The inhibition % of the activity of the urease=100−((the absorbance of the sample/the absorbance of the control group)×100).” for “triplicate.”
8.1 Control group: Control group: 20 μL of the buffer solution and 25 μL of 50 ppm urease were added and mixed in wells of a 96-well plate. After the mixture reacted at 37° C. for 5 minutes, 40 μL of 20 mM urea solution was added into the mixture. After the mixture reacted at 37° C. for 10 minutes, 55 μL of Berthelot reagent A and 60 μL of Berthelot reagent B were added into each well. The mixture was held in the dark at 37° C. for 30 minutes, and the absorbance was measured at 625 nm wavelength by the ELISA reader. Each sample was measured at least in triplicate.
as §1, with “8.2 Ascorbic acid groups: 10” for “7.1 Control group: Control group: 20”, “buffer solution, 10 μL of ascorbic acid” for “buffer”, “mixture to make the final concentrations of the ascorbic acid as 120 ppm, 240 ppm and 480 ppm, respectively.” for “mixture.”, “triplicate. The inhibition % of the activity of the urease=100−((the absorbance of the sample/the absorbance of the control group)×100).” for “triplicate.”
9.1 Control group: Control group: 20 μL of the buffer solution and 25 μL of 50 ppm urease were added and mixed in wells of a 96-well plate. After the mixture reacted at 37° C. for 5 minutes, 40 μL of 20 mM urea solution was added into the mixture. After the mixture reacted at 37° C. for 10 minutes, 55 μL of Berthelot reagent A and 60 μL of Berthelot reagent B were added into each well. The mixture was held in the dark at 37° C. for 30 minutes, and the absorbance was measured at 625 nm wavelength by the ELISA reader. Each sample was measured at least in triplicate.
as §1, with “9.2 Ascorbic acid groups: 10” for “7.1 Control group: Control group: 20”, “buffer solution, 10 μL of ascorbic acid” for “buffer”, “mixture to make the final concentrations of the ascorbic acid as 120 ppm, 240 ppm and 480 ppm, respectively.” for “mixture.”, “Each sample was measured at least in triplicate.” left out

[2] = molecular target: T1, urease (U7752, Sigma-Aldrich); experiment: Inhibition of the activity of the urease in phosphate buffer solution (Berthelot, absorbance 625 nm); format: biochemical
Experimental: 1. Experiment of the Inhibition of the Activity of the Urease (in Phosphate Buffer Solution, pH 5.0)
1.1 Control group: 20 μL of the buffer solution and 25 μL of 50 ppm urease (U7752, Sigma-Aldrich) were added and mixed in wells of a 96-well plate. After the mixture reacted at 37° C. for 5 minutes, 40 μL of 20 mM urea solution was added into the mixture. After the mixture reacted at 37° C. for 10 minutes, 55 μL of Berthelot reagent A (prepared by mixing 5 g of phenol and 25 mg of sodium nitroprusside and diluting the mixture to 500 mL with purified water) and 60 μL of Berthelot reagent B (prepared by mixing 2.5 g of sodium hydroxide and 4.2 mL of sodium hypochlorite and diluting the mixture to 500 mL with purified water) were added into each well. The mixture was held in the dark at 37° C. for 30 minutes, and the absorbance was measured at 625 nm wavelength by an enzyme-linked immuno-sorbent assay (ELISA) reader. Each sample was measured at least in triplicate.
as §1, with “1.2 Ascorbic acid groups: 10” for “7.1 Control group: Control group: 20”, “buffer solution, 10 μL of ascorbic acid” for “buffer”, “mixture to make the final concentrations of the ascorbic acid as 120 ppm, 240 ppm and 480 ppm, respectively.” for “mixture.”, “triplicate. The inhibition % of the activity of the urease=100−((the absorbance of the sample/the absorbance of the control group)×100).” for “triplicate.”
2. Experiment of the Inhibition of the Activity of the Urease (in Phosphate Buffer Solution, pH 6.0)
2.1 Control group: 20 μL of the buffer solution and 25 μL of 50 ppm urease were added and mixed in wells of a 96-well plate. After the mixture reacted at 37° C. for 5 minutes, 40 μL of 20 mM urea solution was added into the mixture. After the mixture reacted at 37° C. for 10 minutes, 55 μL of Berthelot reagent A and 60 μL of Berthelot reagent B were added into each well. The mixture was held in the dark at 37° C. for 30 minutes, and the absorbance was measured at 625 nm wavelength by the ELISA reader. Each sample was measured at least in triplicate.
as §1, with “2.2 Ascorbic acid groups: 10” for “7.1 Control group: Control group: 20”, “buffer solution, 10 μL of ascorbic acid” for “buffer”, “mixture to make the final concentrations of the ascorbic acid as 120 ppm, 240 ppm and 480 ppm, respectively.” for “mixture.”, “triplicate. The inhibition % of the activity of the urease=100−((the absorbance of the sample/the absorbance of the control group)×100).” for “triplicate.”
3. Experiment of the Inhibition of the Activity of the Urease (in Phosphate Buffer Solution, pH 6.8)
3.1 Control group: 20 μL of the buffer solution and 25 μL of 50 ppm urease were added and mixed in wells of a 96-well plate. After the mixture reacted at 37° C. for 5 minutes, 40 μL of 20 mM urea solution was added into the mixture. After the mixture reacted at 37° C. for 10 minutes, 55 μL of Berthelot reagent A and 60 μL of Berthelot reagent B were added into each well. The mixture was held in the dark at 37° C. for 30 minutes, and the absorbance was measured at 625 nm wavelength by the ELISA reader. Each sample was measured at least in triplicate. […]

[3] = pH 5, read-out: inhibition % of the activity of the urease
[4] = pH 6, read-out: inhibition % of the activity of the urease
[5] = pH 6.8, read-out: inhibition % of the activity of the urease
[6] = pH 7, read-out: inhibition % of the activity of the urease
[7] = pH 7.3, read-out: inhibition % of the activity of the urease
[8] = pH 8, read-out: inhibition % of the activity of the urease

T1 sequence (P07374 whole entry, looked up): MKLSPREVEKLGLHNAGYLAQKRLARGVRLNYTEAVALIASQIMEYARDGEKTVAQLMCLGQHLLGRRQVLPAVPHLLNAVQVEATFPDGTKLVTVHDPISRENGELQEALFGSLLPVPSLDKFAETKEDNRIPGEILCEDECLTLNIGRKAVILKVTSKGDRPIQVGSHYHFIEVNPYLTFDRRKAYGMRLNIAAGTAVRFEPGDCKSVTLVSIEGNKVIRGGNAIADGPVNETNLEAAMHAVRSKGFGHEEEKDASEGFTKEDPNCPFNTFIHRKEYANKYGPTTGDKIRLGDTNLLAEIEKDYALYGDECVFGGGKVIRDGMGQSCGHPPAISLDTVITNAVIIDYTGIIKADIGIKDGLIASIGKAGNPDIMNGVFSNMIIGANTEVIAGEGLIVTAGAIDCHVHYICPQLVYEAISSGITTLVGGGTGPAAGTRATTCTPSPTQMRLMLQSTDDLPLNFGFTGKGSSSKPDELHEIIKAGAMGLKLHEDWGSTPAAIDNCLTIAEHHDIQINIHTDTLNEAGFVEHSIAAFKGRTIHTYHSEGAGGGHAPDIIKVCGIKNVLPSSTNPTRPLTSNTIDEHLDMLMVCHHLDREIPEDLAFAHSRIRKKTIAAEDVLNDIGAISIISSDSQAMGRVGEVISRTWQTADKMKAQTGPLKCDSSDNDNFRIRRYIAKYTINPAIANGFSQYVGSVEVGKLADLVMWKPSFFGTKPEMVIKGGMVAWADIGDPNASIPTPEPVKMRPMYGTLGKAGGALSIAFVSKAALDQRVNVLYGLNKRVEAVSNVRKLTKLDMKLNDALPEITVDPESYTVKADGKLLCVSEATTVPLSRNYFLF

For `O=C1O[C@H]([C@@H](O)CO)C(O)=C1O` [ascorbic acid], the inhibition at 120 ppm ([1]; pH 6.8, read-out: inhibition % of the activity of the urease, 120 ppm ascorbic acid, citrate buffer solution, pH 6.8) was -6.8%, the inhibition at 240 ppm ([1]; pH 6.8, read-out: inhibition % of the activity of the urease, 240 ppm ascorbic acid, citrate buffer solution, pH 6.8) was 66% and the inhibition at 480 ppm ([1]; pH 6.8, read-out: inhibition % of the activity of the urease, 480 ppm ascorbic acid, citrate buffer solution, pH 6.8) was 93.5%. The inhibition at 480 ppm ([1]; pH 6.8, read-out: inhibition of the urea hydrolysis, 480 ppm ascorbic acid, citrate buffer solution, pH 6.8-7.0) was > 90%, the inhibition at 480 ppm ([1]; pH 6.8, read-out: inhibition of the urea hydrolysis, 480 ppm ascorbic acid, citrate buffer solution, pH 6.8-7.3) was > 50% and the inhibition at 120 ppm ([1]; pH 7, read-out: inhibition % of the activity of the urease, 120 ppm ascorbic acid, citrate buffer solution, pH 7.0) was -25.2%. The inhibition at 240 ppm ([1]; pH 7, read-out: inhibition % of the activity of the urease, 240 ppm ascorbic acid, citrate buffer solution, pH 7.0) was 32.6%, the inhibition at 480 ppm ([1]; pH 7, read-out: inhibition % of the activity of the urease, 480 ppm ascorbic acid, citrate buffer solution, pH 7.0) was 93.6% and the inhibition at 120 ppm ([1]; pH 7.3, read-out: inhibition % of the activity of the urease, 120 ppm ascorbic acid, citrate buffer solution, pH 7.3) was -19.7%. The inhibition at 240 ppm ([1]; pH 7.3, read-out: inhibition % of the activity of the urease, 240 ppm ascorbic acid, citrate buffer solution, pH 7.3) was 27.1%, the inhibition at 480 ppm ([1]; pH 7.3, read-out: inhibition % of the activity of the urease, 480 ppm ascorbic acid, citrate buffer solution, pH 7.3) was 75.3% and the “inhibitory effect on the urease hydrolysis (in words)” value ([2]; environment with pH 5-8, optical density versus control group) was “has the inhibitory effect on the urease hydrolysis”. For the same compound, the “inhibitory effect on the urease hydrolysis” value ([2]; environment with pH 6.8-7.3, summary statement, buffer and concentration not stated) was “over 90%”, the inhibition at 120 ppm [2, 3] was 25.7% and the inhibition at 240 ppm [2, 3] was 33.1%. For the same compound, the inhibition at 480 ppm [2, 3] was 40.5%, the inhibition at 120 ppm [2, 4] was 26.7% and the inhibition at 240 ppm [2, 4] was 49%. The inhibition at 480 ppm [2, 4] was 52.9%, the inhibition at 480 ppm ([2]; pH 6, read-out: inhibition of the urea hydrolysis) was > 50% and the inhibition at 120 ppm [2, 5] was 2%. For the same compound, the inhibition at 240 ppm [2, 5] was 37.3%, the inhibition at 480 ppm [2, 5] was 96.5% and the inhibition at 480 ppm ([2]; pH 6.8, read-out: inhibition of the urea hydrolysis) was > 93%. It also gave an inhibition at 120 ppm [2, 6] of 16.1%, an inhibition at 240 ppm [2, 6] of 59.4% and an inhibition at 480 ppm [2, 6] of 97.2%. For the same compound, the inhibition at 120 ppm [2, 7] was 11.3%, the inhibition at 240 ppm [2, 7] was 34.6% and the inhibition at 480 ppm [2, 7] was 93.6%. The inhibition at 120 ppm [2, 8] was 8.1%, the inhibition at 240 ppm [2, 8] was 33.3% and the inhibition at 480 ppm [2, 8] was 77.7%.
